Test results reported in paper PMC9223267, “Serine hydroxymethyltransferase as a potential target of antibacterial agents acting synergistically with one-carbon metabolism-related inhibitors” (Communications Biology, 2022).
“And” between values parts separate entries of the source, which are not always exact repeats. Equal entries are not always repeated. Where two headings read alike, the source gives them in different places.

What was measured:
[1] = test system: Caski cells; assay: Cell cytotoxicity assay (Cell Counting Kit-8, 5 days); format: cell-based, human; conditions: with each cell line (Caski, Hep-2 and Calu-3)
Procedure: After serial dilution, 100 μL of FBS-containing medium including the cells was added to each well of the plate. […] All CC50 determining assays were conducted in duplicate or triplicate[39],[40].

[2] = test system: E. faecium; assay: Antibacterial activity evaluation (turbidity, OD600); format: cell-based, Enterococcus faecium (JCM5804); conditions: Enterococcus faecium, E. faecium JCM5804
Procedure: (§1) E. faecium and E. faecalis were diluted to turbidity equivalents that matched 1.0 McFarland (McF) standard in distilled water (S. aureus and E. coli were also diluted to 0.5 McF), and additionally diluted 1:200 in Mueller–Hinton (MH) broth. The designated concentrations of the tested compounds were prepared by ten-fold serial dilutions directly in 96-well microtiter plates (IWAKI, Shizuoka, Japan), as previously described. […] The other compounds were serially diluted from 20 μM downwards (final concentration, 10 μM). […] Positive control wells included bacteria without any compound, and the negative control wells only contained MH broth. […] The optical density at 600 nm (OD600) was measured using a GloMax microtiter plate reader (Promega, WI, USA), and the EC50 values of each test compound and standard error were calculated by Microsoft Excel function, AVERAGE and STDEV/SQRT.

[3] = test system: E. faecalis; assay: as above; format: cell-based, Enterococcus faecalis (JCM7783); conditions: Enterococcus faecalis, E. faecalis JCM7783
Procedure: as §1

[4] = test system: S. aureus; assay: as above; format: cell-based, Staphylococcus aureus (ATCC29213); conditions: Staphylococcus aureus, S. aureus ATCC29213
Procedure: as §1

[5] = test system: E. coli; assay: as above; format: cell-based, Escherichia coli (ATCC25922); conditions: Escherichia coli, E. coli ATCC25922
Procedure: as §1

[6] = test system: E. faecium; assay: Antibacterial assay with an excess concentration of biomolecules (Ser, Gly, inosine, dT, FA); format: cell-based, Enterococcus faecium (JCM5804); conditions: Enterococcus faecium, JCM5804, E. faecium JCM5804
Procedure: as §1
The ratio of the control EC50 (no competitors added) to the experimental EC50 (competitors added) was calculated for each test substance.

[7] = test system: E. faecium; assay: Bacterial viability assay (Microbial Viability Assay Kit-WST, OD450); format: cell-based, Enterococcus faecium; conditions: for Relative bacterial viability: single values
Procedure: Living E. faecium were determined using the Microbial Viability Assay Kit-WST (DOJINDO, Tokyo, Japan). […] Positive control wells included bacteria seeded into MH broth without compounds, and the negative control wells contained MH broth only. […] Five microlitres of the colouring reagent were added to each well of the 96-well plate every 2 h after starting incubation with each compound.

[8] = read-out: pEC50 ± S.E. (converted)

`COc1cc(Cc2cnc(N)nc2N)cc(OC)c1OC` [TMP, trimethoprim] was tested, and the “selectivity index (S.I.): CC50 against each cell line / EC50 against E. faecium” value [1] was “high bacterial selectivity”, the EC50 ([2]; read-out: EC50) was 2.8 nM and the EC50 [2, 8] was 2.51 nM. For the same compound, the EC50 ([3]; read-out: EC50) was 270 nM, the EC50 [3, 8] was 251 nM and the EC50 ([4]; read-out: EC50) was 290 nM. The EC50 [4, 8] was 316 nM, the EC50 ([5]; read-out: EC50) was 170 nM and the EC50 [5, 8] was 158 nM. It also gave an EC50 ([6]; 1 mM Inosine, read-out: pEC50 ± S.E. (converted)) of 2.51 nM, an EC50 ([6]; 1 mM deoxythymidine, read-out: EC50) of 54000 nM and an EC50 ([6]; 1 mM deoxythymidine, read-out: pEC50 ± S.E. (converted)) of 50100 nM. For the same compound, the EC50 ([6]; 10 mM Glycine, read-out: EC50) was 2.1 nM, the EC50 ([6]; 10 mM Glycine, read-out: pEC50 ± S.E. (converted)) was 2 nM and the EC50 ([6]; 100 mM Serine, read-out: EC50) was 3.3 nM. The EC50 ([6]; 100 mM Serine, read-out: pEC50 ± S.E. (converted)) was 3.16 nM, the EC50 ([6]; 0.1 M folate, read-out: EC50) was 41 nM and the EC50 ([6]; 0.1 M folate, read-out: pEC50 ± S.E. (converted)) was 50.1 nM. The Relative bacterial viability ([7]; 2 nM, 0 hours) was 0.02108 and 0.02214 and 0.02363 and 0.02319 and 0.01396 and 0.01461 and 0.0211 and 0.02201, the Relative bacterial viability ([7]; 2 nM, 2 hours) was 0.03256 and 0.03276 and 0.0358 and 0.03793 and 0.02817 and 0.0276 and 0.03152 and 0.02983 and the Relative bacterial viability ([7]; 2 nM, 8 hours) was 0.6778 and 0.6938 and 0.7383 and 0.6754 and 0.6268 and 0.6594 and 0.6905 and 0.6243. For the same compound, the Relative bacterial viability ([7]; 2 nM, 10 hours) was 0.7078 and 0.7215 and 0.7487 and 0.6774, the Relative bacterial viability ([7]; 2 nM, 12 hours) was 0.7931 and 0.8524 and 0.8435 and 0.6543 and 0.7061 and 0.7294 and 0.7396 and 0.7126 and the Relative bacterial viability ([7]; 2 nM, 14 hours) was 0.8722 and 0.7867 and 0.9195 and 0.9126 and 0.8033 and 0.8796 and 0.8243 and 0.8853. The Relative bacterial viability ([7]; 20 nM, 0 hours) was 0.02896 and 0.02213 and 0.01772 and 0.01904 and 0.02117 and 0.02218 and 0.02462 and 0.0192, the Relative bacterial viability ([7]; 20 nM, 2 hours) was 0.03873 and 0.03054 and 0.0347 and 0.03215 and 0.02983 and 0.02843 and 0.03279 and 0.02955 and the Relative bacterial viability ([7]; 20 nM, 4 hours) was 0.0705 and 0.06896 and 0.0607 and 0.07039 and 0.05304 and 0.06167 and 0.06352 and 0.06901. The Relative bacterial viability ([7]; 20 nM, 6 hours) was 0.09036 and 0.1064 and 0.1059 and 0.1127 and 0.1209 and 0.1443 and 0.152 and 0.1417, the Relative bacterial viability ([7]; 20 nM, 8 hours) was 0.1279 and 0.1203 and 0.1189 and 0.109 and 0.09529 and 0.09698 and 0.1178 and 0.11 and the Relative bacterial viability ([7]; 20 nM, 10 hours) was 0.1127 and 0.1159 and 0.1045 and 0.09171 and 0.08771 and 0.09868 and 0.1124 and 0.1197. The Relative bacterial viability ([7]; 20 nM, 12 hours) was 0.09851 and 0.09831 and 0.1104 and 0.1131 and 0.09658 and 0.1085 and 0.1167 and 0.1091 and the EC50 ([7]; Enterococcus faecium, relative bacterial viability after 14 h incubation) was 8.8 nM.
